Test results: patent US7452885B2, “Amino-5-(6-membered)heteroarylimidazolone compounds and the use thereof for β-secretase modulation” (Wyeth, priority 2005, dated 2008)

What follows are compounds tested against human BACE1 (Homo sapiens, UniProt P56817) (assay: Fluorescent kinetic assay, BACE-1 (Example 114)). Details: not given.
Type: biochemical
Protocol: Evaluation of BACE-1 Binding Affinity of Test Compounds
Fluorescent Kinetic Assays
Dilution and mixing steps: total reaction volume: 100 μL
100 μM substrate dilution in 1×PBS was prepared, and
Fluorescence Readings: Readings at λex 320 nm and εem 420 nm are taken every 40 sec for 30 min at room temperature and the linear slope for substrate cleavage rate (vi) determined.

Chain of human BACE1 (P56817 46-501): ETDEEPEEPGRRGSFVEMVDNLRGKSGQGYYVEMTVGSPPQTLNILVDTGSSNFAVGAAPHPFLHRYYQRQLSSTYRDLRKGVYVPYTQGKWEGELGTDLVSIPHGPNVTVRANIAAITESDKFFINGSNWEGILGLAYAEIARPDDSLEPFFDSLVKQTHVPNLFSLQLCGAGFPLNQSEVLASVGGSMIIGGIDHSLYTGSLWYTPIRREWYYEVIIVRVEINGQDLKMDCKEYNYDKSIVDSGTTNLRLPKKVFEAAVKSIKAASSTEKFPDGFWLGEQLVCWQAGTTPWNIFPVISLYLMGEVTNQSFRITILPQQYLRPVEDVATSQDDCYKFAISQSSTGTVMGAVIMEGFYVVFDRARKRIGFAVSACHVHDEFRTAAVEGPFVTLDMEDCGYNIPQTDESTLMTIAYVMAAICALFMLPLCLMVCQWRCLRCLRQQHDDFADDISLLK

Structure (SMILES) | IC50
CN1C(=O)C(c2ccccc2)(c2ccncc2)N=C1N (stereo not shown) [Example 23, 2-Amino-3-methyl-5-phenyl-5-pyridin-4-yl-3,5-dihydro-4H-imidazol-4-one] | > 1 µM
CN1C(=O)C(c2ccncc2)(c2cccc(-c3cc(F)cc(F)c3)c2)N=C1N (stereo not shown) [Example 31] | 0.01 to 0.1 µM
COc1cccc(-c2cccc(C3(c4ccncc4)N=C(N)N(C)C3=O)c2)c1 (stereo not shown) [Example 34] | 0.01 to 0.1 µM
CN1C(=O)C(c2ccncc2)(c2cccc(-c3cccc(F)c3F)c2)N=C1N (stereo not shown) [Example 40] | 0.01 to 0.1 µM
CN1C(=O)C(c2ccncc2)(c2cccc(-c3cccnc3F)c2)N=C1N (stereo not shown) [Example 43] | 0.01 to 0.1 µM
CN1C(=O)C(c2ccncc2)(c2cccc(-c3cccnc3)c2)N=C1N (stereo not shown) [Example 44] | 0.01 to 0.1 µM
CN1C(=O)C(c2ccncc2)(c2cccc(-c3cccc(F)c3)c2)N=C1N (stereo not shown) [Example 53] | 0.01 to 0.1 µM
CN1C(=O)C(c2ccncc2)(c2cccc(-c3cccc(C#N)c3)c2)N=C1N (stereo not shown) [Example 55] | 0.01 to 0.1 µM
Cc1cc(C2(c3cccc(-c4cccnc4)c3)N=C(N)N(C)C2=O)ccn1 (stereo not shown) [Example 60] | 0.01 to 0.1 µM
Cc1cc(C2(c3cccc(-c4cncnc4)c3)N=C(N)N(C)C2=O)ccn1 (stereo not shown) [Example 61] | 0.01 to 0.1 µM
CC(C)c1cc(C2(c3cccc(-c4cncnc4)c3)N=C(N)N(C)C2=O)ccn1 (stereo not shown) [Example 87] | 0.01 to 0.1 µM

Next, values leading:

IC50 | Structure (SMILES)
0.11 to 1 µM | Cc1cc(C2(c3cccc(-c4cncnc4)c3)N=C(N)N(C)C2=O)cc(C)n1 (stereo not shown) [Example 75]
0.11 to 1 µM | CCc1cc(C2(c3cccc(-c4cncnc4)c3)N=C(N)N(C)C2=O)cc(C)n1 (stereo not shown) [Example 84]
0.01 to 0.1 µM | CCc1cc(C2(c3cccc(-c4cncnc4)c3)N=C(N)N(C)C2=O)cc(CC)n1 (stereo not shown) [Example 91]
> 1 µM | CCc1cc([C@@]2(c3cccc(-c4cncnc4)c3)N=C(N)N(C)C2=O)cc(CC)n1 [Example 103A]
0.01 to 0.1 µM | CCc1cc([C@]2(c3cccc(-c4cncnc4)c3)N=C(N)N(C)C2=O)cc(CC)n1 [Example 103B]

Same assay, conditions: 10 nM human BACE1, 25 μM substrate WABC-6, 50 mM Na-Acetate pH 4.5, room temperature; read-out: BACE-1 (IC50 μM)

Structure (SMILES) | IC50
COc1ncc(C2(c3cccc(-c4cncnc4)c3)N=C(N)N(C)C2=O)c(OC)n1 (stereo not shown) [Example 97] | > 1 µM
COc1ncc(C2(c3cccc(-c4cccnc4F)c3)N=C(N)N(C)C2=O)c(OC)n1 (stereo not shown) [Example 98] | 0.11 to 1 µM
Cc1cc(C2(c3cccc(-c4cnccn4)c3)N=C(N)N(C)C2=O)cc(C)n1 (stereo not shown) [Example 101] | 0.11 to 1 µM
COc1ccc(C2(c3ccnc(-c4ccccc4)c3)N=C(N)N(C)C2=O)cc1C (stereo not shown) [Example 109, 2-Amino-5-(4-methoxy-3-methylphenyl)-3-methyl-5-(2-phenylpyridin-4-yl)-3,5-dihydro-4H-imidazol-4-one] | 0.11 to 1 µM
CN1C(=O)[C@](c2ccncc2)(c2ccc(F)c(-c3cccnc3F)c2)N=C1N [Example 113A, (5R)-2-amino-5-[4-fluoro-3-(2-fluoropyridin-3-yl)phenyl]-3-methyl-5-pyridin-4-yl-3,5-dihydro-4H-imidazol-4-one] | > 1 µM
CN1C(=O)[C@@](c2ccncc2)(c2ccc(F)c(-c3cccnc3F)c2)N=C1N [Example 113B, (5S)-2-amino-5-[4-fluoro-3-(2-fluoropyridin-3-yl)phenyl]-3-methyl-5-pyridin-4-yl-3,5-dihydro-4H-imidazol-4-one] | > 1 µM

Next, values leading:

IC50 | Structure (SMILES)
0.11 to 1 µM | CCc1cc(C2(c3cccc(-c4ccc(F)nc4)c3)N=C(N)N(C)C2=O)cc(CC)n1 (stereo not shown) [Example 93]
> 1 µM | CCc1cc([C@@]2(c3cccc(-c4ccc(F)nc4)c3)N=C(N)N(C)C2=O)cc(CC)n1 [Example 108A, (5R)-2-Amino-5-(2,6-diethylpyridin-4-yl)-5-[3-(6-fluoropyridin-3-yl)phenyl]-3-methyl-3,5-dihydro-4H-imidazol-4-one]
0.01 to 0.1 µM | CCc1cc([C@]2(c3cccc(-c4ccc(F)nc4)c3)N=C(N)N(C)C2=O)cc(CC)n1 [Example 108B, (5S)-2-Amino-5-(2,6-diethylpyridin-4-yl)-5-[3-(6-fluoropyridin-3-yl)phenyl]-3-methyl-3,5-dihydro-4H-imidazol-4-one]
